Test [1] deals with T1, Epidermal growth factor receptor (Homo sapiens, UniProt P00533). Nature of the test: biochemical.
Description: Inhibitory potency against isolated epidermal growth factor receptor (EGFR) from human A431 carcinoma cells
Test [2] has as its target T1, Epidermal growth factor receptor. Briefly: Inhibition of Epidermal growth factor receptor autophosphorylation in A431 human epidermoid carcinoma cells.

Structures are written as SMILES.

T1 sequence (P00533 whole entry): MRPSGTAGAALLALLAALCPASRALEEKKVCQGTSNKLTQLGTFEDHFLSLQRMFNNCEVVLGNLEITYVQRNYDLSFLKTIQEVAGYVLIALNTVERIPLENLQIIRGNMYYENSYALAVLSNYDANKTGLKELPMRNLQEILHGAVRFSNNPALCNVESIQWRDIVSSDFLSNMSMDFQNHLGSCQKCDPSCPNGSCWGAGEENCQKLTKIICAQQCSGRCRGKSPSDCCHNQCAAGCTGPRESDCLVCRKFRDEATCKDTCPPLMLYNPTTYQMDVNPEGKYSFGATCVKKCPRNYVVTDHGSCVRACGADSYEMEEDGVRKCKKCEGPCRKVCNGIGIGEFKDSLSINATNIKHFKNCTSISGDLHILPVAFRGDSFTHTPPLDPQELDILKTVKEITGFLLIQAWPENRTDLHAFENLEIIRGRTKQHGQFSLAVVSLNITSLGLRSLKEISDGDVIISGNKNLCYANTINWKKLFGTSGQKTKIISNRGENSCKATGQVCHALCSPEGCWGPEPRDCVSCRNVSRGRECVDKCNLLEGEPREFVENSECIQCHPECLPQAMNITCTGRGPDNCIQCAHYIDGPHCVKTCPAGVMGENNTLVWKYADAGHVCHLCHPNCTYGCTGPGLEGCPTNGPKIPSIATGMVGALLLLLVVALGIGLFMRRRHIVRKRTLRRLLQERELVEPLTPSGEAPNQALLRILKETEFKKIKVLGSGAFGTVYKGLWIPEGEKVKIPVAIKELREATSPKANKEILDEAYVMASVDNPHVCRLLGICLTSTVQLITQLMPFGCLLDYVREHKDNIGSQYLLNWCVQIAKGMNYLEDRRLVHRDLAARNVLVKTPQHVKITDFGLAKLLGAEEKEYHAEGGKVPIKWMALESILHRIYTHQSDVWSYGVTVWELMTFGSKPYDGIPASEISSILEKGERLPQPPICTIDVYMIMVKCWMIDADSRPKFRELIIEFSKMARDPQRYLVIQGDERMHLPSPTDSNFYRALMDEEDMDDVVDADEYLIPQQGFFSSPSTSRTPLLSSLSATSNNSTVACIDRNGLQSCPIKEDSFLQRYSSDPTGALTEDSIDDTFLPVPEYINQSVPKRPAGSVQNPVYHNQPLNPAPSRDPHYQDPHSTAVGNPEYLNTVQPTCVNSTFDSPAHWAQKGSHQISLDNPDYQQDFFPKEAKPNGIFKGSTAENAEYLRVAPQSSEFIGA

For orientation: IC50 means the concentration that gives 50% inhibition. On to `CNC1=CC2N=CN(C)/C(=N\c3cccc(Br)c3)C2C=N1` (configuration not stated), for which, in test [1], 0.0031 µM corresponded to half-maximal inhibition (IC50).
Still for that read-out and setting: the result for `COc1ccc(CNc2cc3c(Nc4cccc(Br)c4)ncnc3cn2)cc1` reads 0.0023 µM.
With `CN(C)c1ccc2c(Nc3cccc(Br)c3)ncnc2n1`, the IC50 in test [1] stood at 0.324 µM; in test [2], 2.3 µM.
In the case of `c1ccc(CNc2ncnc3ccncc23)cc1`, the IC50 in test [1] is 1.46 µM.
For the compound `Brc1cccc(Nc2ncnc3cccnc23)c1`, the IC50 in test [1] turned out to be 0.034 µM. This IC50 lies about 43-fold lower than the previous one.
Still for that read-out and setting: the figure for `c1ccc2ncncc2c1` [QUINAZOLINE] is 0.027 µM.
Consider `Nc1cc2c(Nc3cccc(Br)c3)ncnc2cn1`, for which the IC50 in test [1] is 0.00013 µM; in test [2], 0.016 µM.
Take `COc1ccc2ncncc2c1`: the IC50 in test [1] was found to be 0.03 µM.
Compound `CNc1cc2c(Nc3cccc(Br)c3)ncnc2cn1` came in with an IC50 in test [2] of 0.015 µM.
Take `COc1ccc2cncnc2c1`: it took 0.01 µM to reach half-maximal inhibition in test [1] (IC50).
`Brc1cccc(Nc2ncnc3ncccc23)c1`: half-maximal inhibition in test [1] (IC50) was put at 0.688 µM.
The same measure, in the same setting: the result for `Brc1cccc(Nc2ncnc3ccncc23)c1` reads 0.035 µM; that for `c1ccc(CNc2ncnc3cccnc23)cc1`, 0.603 µM.
Same read-out and setting: the result for `CNc1cc2c(Nc3ccccc3)ncnc2cn1` reads 0.009 µM; that for `Nc1ccc2cncnc2c1`, 0.0001 µM.
In the case of `Nc1cc2ncnc(NCc3ccccc3)c2cn1`, half-maximal inhibition in test [2] (IC50) was put at 2.08 µM.
Consider `CNc1ccc2ncncc2c1`, for which the IC50 in test [1] is 0.007 µM.
Regarding `Brc1cccc(Nc2ncnc3cnccc23)c1`, the IC50 in test [1] was determined as 0.051 µM.
The same measure, in the same setting: the result for `Clc1ccc2ncnc(Nc3cccc(Br)c3)c2n1` reads 0.018 µM; that for `CN(C)c1ccc2cncnc2c1`, 0.011 µM; that for `CN(C)c1ccc2ncncc2c1`, 0.12 µM.
Take `CNc1cc2ncnc(Nc3cccc(Br)c3)c2cn1`: the midpoint of inhibition in test [2], the IC50, lay at 0.016 µM.
`c1ccc(CNc2ncnc3ncccc23)cc1`: in test [1], the IC50 was more than 10 µM.
Still for that read-out and setting: the result for `Fc1ccc2ncnc(Nc3cccc(Br)c3)c2n1` reads 0.044 µM.
Same read-out and setting: the result for `c1ccc(CNc2ncnc3cnccc23)cc1` reads 2.03 µM; that for `Fc1ccc2c(Nc3cccc(Br)c3)ncnc2n1`, 0.684 µM.
`CN(C)c1cc2ncnc(Nc3cccc(Br)c3)c2cn1` had an IC50 in test [2] of 0.014 µM.
Regarding `CNc1ccc2cncnc2c1`, half-maximal inhibition in test [1] (IC50) required 0.004 µM. That is a single-digit nanomolar value.
On to `Nc1ccc2ncncc2c1`, for which, in test [1], the half-maximal inhibitory concentration (IC50) stood at 0.00079 µM.
On the same count and under the same terms, the figure for `COc1ccc2ncnc(Nc3cccc(Br)c3)c2n1` is 0.0043 µM.

The record behind these values is ChEMBL document CHEMBL1129564, “Tyrosine kinase inhibitors. 10. Isomeric 4-[(3-bromophenyl)amino]pyrido[d]-pyrimidines are potent ATP binding site inhibitors of the tyrosine kinase function of the epidermal growth factor receptor” (J Med Chem, 1996).
